Values joined by “and” are separate entries in the source; they are usually repeats but may differ in a detail not shown here. Equal values may be shown once.
What was measured:
[1] = Toxicokinetics in the 4-week mouse toxicity study; assay type: in vivo; conditions: for AUC(0-t) / Cmax / Tmax: plasma
Protocol: This study was conducted to evaluate the potential toxicity of ACI-3024 when given daily by oral gavage to CD1 mice for 4 weeks, followed by a 2-week recovery period. Doses of 100, 300 and 1000 mg/kg were administered by p.o. to 10 animals/sex/group daily. The control animals were administered vehicle. The dose volume was 10 mL/kg for all groups.

[2] = in vivo; design: species or system mini-pig; conditions: both sexes, Gottingen, minipig, po
Protocol: (§1) This study was conducted to evaluate the potential toxicity of ACI-3024 in a non-rodent species when given daily to Gottingen mini-pig for 4 weeks, followed by a 2-week recovery period.
(§2) Doses tested, 50, 150 and 450 mg/kg were given by p.o. to 3 animals/sex/group daily. The control animals were administered vehicle. The dose volume was 5 mL/kg for all groups.
(§3) Clinical signs, body weights, food consumption, electrocardiography, ophthalmology and clinical pathology were evaluated. For each sex/group, a complete necropsy was conducted on 3 animals at the end of the dosing period and on 2 (only control and high dose groups) surviving animals at end of the recovery period.

[3] = system: Gottingen mini-pig; assay: in vivo; conditions: minipig
Protocol: as §1, §2, §3

[4] = CSF concentrations of ACI-3024 in MAD cohort MAD-HV3; assay type: in vivo
Protocol: Methods for measuring the amount of administered compound, such as ACI-3024, in CSF of a subject are well know in the art. As an example, CSF can be drawn by lumbar puncture and content of the administered compound can be analysed by a LC-MS/MS method, among other methods.
Cohorts MAD-HV1 to MAD-HV3 comprised 10 elderly non-Japanese male or female subjects, 8 were treated with ACI-3024 and 2 were being given placebo. Cohort MAD-HV4 comprised 5 non-elderly Japanese subjects (4 treated with ACI-3024 and 1 given placebo) and 5 […] (4 treated with ACI-3024 and 1 given placebo). Only subjects from MAD HV3 cohort underwent CSF samplings to explore the CSF inflammatory markers, CSF PK, and CSF PD of ACI-3024. For all subjects, dosing was on […], inclusive, and a final single dose administration occurred on […]. Dose in cohort MAD HV1 was 500 mg of ACI-3024 or placebo, QD, fasted. Dose in cohorts MAD HV2 and MAD HV4 was 500 mg of ACI-3024 or placebo, BID (“bis in die” ie., twice a day), fed. Dose in cohort MAD HV3 was 1400 mg of ACI-3024 or placebo, QD (“quaque die” (once a day), fed.

[5] = system: healthy subjects; assay: First-in-human study, single ascending dose (SAD) part: safety and tolerability; assay type: in vivo; conditions: for number of AEs: healthy subjects
Source text: A First-In-Human, Randomized, Placebo-Controlled, Double-Blind, SAD/MAD Study to Assess the Safety, Tolerability, Pharmacokinetics, and Pharmacodynamics of ACI-3024
The objective of the study is to assess the safety, tolerability, pharmacokinetics (PK), and pharmacodynamics (PD) of single ascending doses (SAD) and multiple ascending doses (MAD) of ACI-3024 in a first-in-human, randomized, placebo-controlled, double-blind, sequential SAD/MAD study with open-label food effect and pharmacodynamic assessment arms. The study comprises different parts to be conducted in Healthy Volunteers: • 1) one Single Ascending Dose (SAD) part in which several cohorts are being investigated with single ascending doses of ACI-3024. The food effect is also explored in this part. • 2) one Multiple Ascending Dose (MAD) part in which several cohorts are being investigated with multiple ascending doses of ACI-3024. Each study part is assessing the safety, tolerability, pharmacokinetics and pharmacodynamics of ACI-3024.
This part comprised a single dose, sequential group design. Overall, 40 healthy non-elderly male subjects were enrolled in 5 cohorts (Cohorts S1 to S5), with each cohort consisting of 8 subjects.
No Japanese subjects were enrolled in Cohort S1. For Cohorts S2 through S5, 4 Japanese subjects and 4 non Japanese subjects were enrolled.
In each of Cohorts S1 to S5, 6 subjects (including 3 Japanese subjects in Cohorts S2 through S5) received ACI-3024 and 2 subjects (including 1 Japanese subject in Cohorts S2 through S5) received placebo. All doses were administered in the fasting state in accordance with a randomization schedule on the morning of Day 1, except for subjects in the food-effect cohort (Cohort S4), who were dosed 30 minutes after starting a high-fat breakfast in Treatment Period 2 only. Each subject received only a single dose of ACI-3024 or placebo during the study, except for subjects in the food effect cohort, who received a single dose of ACI-3024 or placebo in the fasting state followed by a single dose of ACI-3024 in the fed state. Thus, subjects in Cohort S4 received either 2 identical doses of ACI-3024 (6 subjects) or 1 dose of placebo and 1 dose of ACI-3024 (2 subjects). Six subjects of Cohort S4 received 750 mg dose of ACI-3024 and 2 subjects received placebo. After a period of wash-up all 8 subjects of Cohort S4 received a fat-breakfast and a 750 mg dose of ACI-3024.
The total duration of study participation for each subject (from Screening through Follow-up visit) was approximately 37 days, except for subjects in the food-effect cohort (Cohort S4), for whom the total duration was up to approximately 44 days.

[6] = both sexes, mouse, Day 28, 300 mg/kg oral, average M/F CD-1 mice
[7] = mouse, Day 28, 300 mg/kg oral, female CD-1 mice
[8] = mouse, Day 28, 300 mg/kg oral, male CD-1 mice

Fc1ccc2c3c([nH]c2c1)CCN(c1ccc2oc(N4CCOCC4)nc2c1)C3 [ACI-3024]
dose proportionality of plasma exposure ([1]; 100 to 1000 mg/kg): less than dose proportionally
AUC(0-t) [1, 6]: 353 µg·h/mL
Cmax [1, 6]: 25800 ng/mL
Tmax [1, 6]: 4 h
Tmax ([1]; female, CD1, mouse, oral, females, high-dose group (1000 mg/kg), delayed): 24 h
sex difference in exposure ([1]; in general, except 300 mg/kg/day on Day 28): higher exposure was observed in females than in males
AUC(0-t) [1, 7]: 320 µg·h/mL
Cmax [1, 7]: 23400 ng/mL
Tmax [1, 7]: 4 h
AUC(0-t) [1, 8]: 386 µg·h/mL
Cmax [1, 8]: 28300 ng/mL
Tmax [1, 8]: 4 h
accumulation ([1]; repeated administrations, Day 1 vs. Day 28): slight ACI-3024 accumulation
NOAEL at 4 weeks [2]: 450 mg/kg
body weight gain [3]: minimal test item-related reduction
CSF pre-dose concentrations versus target ([4]; MAD, 1400 mg, target established in animal models): > 30 nM
Kp ([4]; both sexes, human, CSF, oral, elderly subjects, multiple doses of 1400 mg QD (fed), read-out: CSF concentration as share of the corresponding plasma concentration): 0.003 to 0.015
dose that would provide sufficient CSF exposure (30 nM) ([4]; extrapolated from 1400 mg CSF data): 300 to 400 mg/day
pre-dose (Cmin) CSF concentration ([4]; multiple oral doses of 1400 mg, Day 7): 36.4±13.6 ng/mL and 90 nM
SAEs or AEs leading to discontinuation ([5]; SAD cohorts, 25 to 1500 mg): no SAEs or AEs leading to discontinuation from the study
vital signs, ECG values, physical or neurological examinations ([5]; SAD cohorts, 25 to 1500 mg): no clinically significant observations
severity of AEs ([5]; SAD cohorts, 25 to 1500 mg (all AEs of the part, placebo included)): mild
overall safety and tolerability ([5]; SAD study, up to the highest administered dose of 1500 mg): safe and well tolerated
number of AEs ([5]; single oral dose 25 mg): 2
number of AEs ([5]; single oral dose 100 mg): 0
number of AEs ([5]; single oral dose 300 mg): 3
number of AEs ([5]; single oral dose 750 mg (fed and fasted states)): 6
number of AEs ([5]; single oral dose 1500 mg): 2

— patent US20230123140A1, “DOSE TREATMENTS OF TAUOPATHIES” (AC Immune SA, priority 2020, published 2023)
